{"source": "patent US20260115203A1", "about": "(LABORATORIOS LITAPHAR, S.L., priority 2023, published 2026)", "key": {"[1]": {"biological_target": "T1, human glucocorticoid receptor (Homo sapiens, UniProt P04150)", "T1 sequence (P04150 1-777)": "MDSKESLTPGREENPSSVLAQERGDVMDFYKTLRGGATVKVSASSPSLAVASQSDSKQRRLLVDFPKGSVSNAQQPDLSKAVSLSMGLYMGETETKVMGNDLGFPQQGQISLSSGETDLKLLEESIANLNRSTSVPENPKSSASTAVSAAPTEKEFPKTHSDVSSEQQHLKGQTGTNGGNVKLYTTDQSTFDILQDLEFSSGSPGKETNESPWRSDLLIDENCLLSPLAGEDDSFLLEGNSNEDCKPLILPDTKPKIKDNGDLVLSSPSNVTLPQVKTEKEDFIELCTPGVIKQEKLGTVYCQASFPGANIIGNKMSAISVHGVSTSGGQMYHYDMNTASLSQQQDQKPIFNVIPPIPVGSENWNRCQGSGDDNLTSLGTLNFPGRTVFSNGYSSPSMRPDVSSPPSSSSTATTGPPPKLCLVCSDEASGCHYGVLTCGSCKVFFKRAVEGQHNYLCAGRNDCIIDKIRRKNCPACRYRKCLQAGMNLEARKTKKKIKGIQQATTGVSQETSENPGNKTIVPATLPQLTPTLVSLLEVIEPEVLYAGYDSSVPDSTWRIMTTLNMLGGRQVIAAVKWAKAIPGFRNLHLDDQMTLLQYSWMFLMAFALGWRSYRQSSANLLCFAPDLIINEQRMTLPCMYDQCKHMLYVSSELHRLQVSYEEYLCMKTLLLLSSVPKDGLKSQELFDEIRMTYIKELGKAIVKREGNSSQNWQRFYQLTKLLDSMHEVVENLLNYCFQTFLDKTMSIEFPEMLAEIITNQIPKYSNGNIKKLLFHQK", "details": "cited from earlier work"}, "[2]": {"details": "compared with parent drug mifepristone; cited from earlier work"}, "[3]": {"biological_target": "T2, human progesterone receptor (Homo sapiens, UniProt P06401)", "T2 sequence (P06401 1-933)": "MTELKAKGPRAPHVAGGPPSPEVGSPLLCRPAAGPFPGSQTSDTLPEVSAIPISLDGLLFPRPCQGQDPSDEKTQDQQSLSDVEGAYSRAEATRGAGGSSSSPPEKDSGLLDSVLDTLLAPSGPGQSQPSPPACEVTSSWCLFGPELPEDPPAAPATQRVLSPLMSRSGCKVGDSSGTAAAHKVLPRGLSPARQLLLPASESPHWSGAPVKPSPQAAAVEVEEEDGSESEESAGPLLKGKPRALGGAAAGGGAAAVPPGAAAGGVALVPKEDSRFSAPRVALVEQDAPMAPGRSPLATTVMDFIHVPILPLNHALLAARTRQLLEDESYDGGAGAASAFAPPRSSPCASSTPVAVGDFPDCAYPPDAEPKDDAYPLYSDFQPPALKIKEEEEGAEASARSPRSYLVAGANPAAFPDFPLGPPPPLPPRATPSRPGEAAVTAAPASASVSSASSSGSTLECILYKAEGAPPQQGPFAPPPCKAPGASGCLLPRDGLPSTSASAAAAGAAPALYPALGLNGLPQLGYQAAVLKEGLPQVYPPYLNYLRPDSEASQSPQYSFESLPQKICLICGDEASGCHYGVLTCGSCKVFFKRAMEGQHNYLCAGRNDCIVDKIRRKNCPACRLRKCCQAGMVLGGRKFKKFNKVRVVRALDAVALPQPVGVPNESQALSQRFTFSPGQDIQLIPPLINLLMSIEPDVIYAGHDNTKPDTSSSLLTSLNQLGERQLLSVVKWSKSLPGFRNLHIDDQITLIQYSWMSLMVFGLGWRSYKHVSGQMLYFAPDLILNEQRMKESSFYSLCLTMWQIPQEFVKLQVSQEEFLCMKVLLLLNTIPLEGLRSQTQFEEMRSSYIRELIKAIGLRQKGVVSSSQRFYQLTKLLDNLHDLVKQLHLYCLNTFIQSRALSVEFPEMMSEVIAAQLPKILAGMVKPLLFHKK", "details": "cited from earlier work"}, "women with endometriosis [4]": {"system": "women with endometriosis", "details": "5 mg orally daily, 6 months, cited from earlier work"}, "women with endometriosis [5]": {"system": "women with endometriosis", "details": "50 mg orally daily, 6 months, cited from earlier work"}, "[6]": {"system": "endometriosis in reproductive-age women", "assay": "Randomized, double-blind clinical trial of mifepristone 2.5 mg and 5 mg vs. placebo (EudraCT 2018-002367-26), endometriosis associated pain by VAS", "format": "in vivo", "source_text": "Both mifepristone products were formulated as tablets with the following respective compositions: […]\nThe planned number of subjects to be included in the whole clinical trial was 490.\nThe principal inclusion criteria were: • [1] Premenopausal female, between 18 and 45 years of age inclusive, at the time of signing consent • [2] Patients with Endometriosis Associated Pelvic Pain (EAPP: i.e. any type of pelvic pain associated with endometriosis: nonmenstrual pelvic pain, dysmenorrhea, dyschezia and dyspareunia) as measured by Visual Analogue Scale (VAS)≥40 mm at least once in the previous 4 weeks from baseline visit • [3] Patients with a history of EAPP for at least the past 6 months prior to the initial screening visit • [4] Endometriosis diagnosed by laparoscopy and/or surgery in the past 10 years or less or diagnosed by MRI or transvaginal ultrasound in the past 5 years • [5] Patients with a history of regular menstrual cycles (21-35 days) while not being on any pharmacological treatment that could alter the menstrual cycle (e.g. oral contraceptive pills) • [6] Patients who agree to use only ibuprofen 400 mg as rescue medication up to a total daily dose of not more than 2400 mg • [7] Patients willing and able (e.g. mental and physical condition) to participate in all aspects of the study as evidenced by providing signed written informed consent • [8] Patient agrees to use double barrier contraception birth control methods (e.g. condom with spermicide) during the entire length of participation in the study. […] History of hypersensitivity or intolerance to the active substance or any of the excipients of the study medication • [2] Subject is pregnant or breast-feeding or is planning a pregnancy within the duration of the study or is less than 6 months postpartum, post-abortion, or post-lactation at the time of entry into the screening period • [3] Previous use of hormonal agents before the Screening visit: ≤24 weeks for GnRH agonists; ≤12 weeks for depot progestogens and danazol: ≤6 weeks for oral contraceptives • [4] Patients with history of any cancer (including breast cancer) and/or histological diagnosis of endometrial atypical hyperplasia at baseline (note: the combination of endometrial thickness<5 mm determined by transvaginal ultrasound and insufficient material for histological evaluation from the endometrial biopsy will be regarded as atrophic endometrium) • [5] Other clinically significant gynaecological condition causing abnormal uterine bleeding already known or identified on Screening such as severe adenomyosis or symptomatic uterine fibroids requiring treatment • [6] Subject has current or history of abnormal genital bleeding • [7] Presence of ovarian cyst of unknown etiology • [8] Cervical smear with pathological findings: class III or higher according to Papanicolaou, class IIp or higher according to the Munich Ill nomenclature or ASC-US or higher according to the Bethesda system • [9] Surgical treatment of endometriosis within 3 months prior to the screening visit • [10] Presence of chronic pain other than pain due to endometriosis • [11] Hepatic insufficiency • [12] History of, or complications of, thrombosis, embolism, or serious cardiac, respiratory (severe asthma not adequately controlled by treatment), renal, hematologic, endocrine diseases • [13] Uncontrolled or inadequately controlled hypertension at the time of screening with a resting supine systolic or diastolic blood pressure>180 mmHg or >95 mmHg, respectively • [14] Subject with hereditary porphyria • [15] Abnormal laboratory findings considered by the investigator as clinically significant • [16] Positive results for HBs-Ag, anti-HCV and HIV-1/HIV-2-antibodies • [17] […]"}, "women with endometriosis [7]": {"system": "women with endometriosis", "details": "100 mg orally daily, three months, cited from earlier work"}, "[8]": {"system": "women with laparoscopic diagnostic of endometriosis", "details": "cited from earlier work"}}, "note": "“Also recorded” adds a separate entry of the source. Where two headings read alike, the source gives them in different places.", "data": [{"smiles": "CC#C[C@]1(O)CC[C@H]2[C@@H]3CCC4=CC(=O)CCC4=C3[C@@H](c3ccc(NC)cc3)C[C@@]21C", "note": "[RU 42633]", "values": [{"measurement": "affinity toward the human glucocorticoid receptor", "setting": "[1]", "value": "considerable affinity"}, {"measurement": "serum concentrations", "setting": "[2]", "value": "in a similar range as those of the parent drug"}, {"measurement": "affinity toward the human progesterone receptor", "setting": "[3]", "value": "considerable affinity"}]}, {"smiles": "CN(C)c1ccc([C@H]2C[C@@]3(C)[C@@H](CC[C@]3(O)C#CCO)[C@@H]3CCC4=CC(=O)CCC4=C32)cc1", "note": "[RU 42698]", "values": [{"measurement": "affinity toward the human glucocorticoid receptor", "setting": "[1]", "value": "considerable affinity"}, {"measurement": "serum concentrations", "setting": "[2]", "value": "in a similar range as those of the parent drug"}, {"measurement": "affinity toward the human progesterone receptor", "setting": "[3]", "value": "considerable affinity"}]}, {"smiles": "CC#C[C@]1(O)CC[C@H]2[C@@H]3CCC4=CC(=O)CCC4=C3[C@@H](c3ccc(N)cc3)C[C@@]21C", "note": "[RU 42848]", "values": [{"measurement": "affinity toward the human glucocorticoid receptor", "setting": "[1]", "value": "considerable affinity"}, {"measurement": "serum concentrations", "setting": "[2]", "value": "in a similar range as those of the parent drug"}, {"measurement": "affinity toward the human progesterone receptor", "setting": "[3]", "value": "considerable affinity"}]}, {"smiles": "CC#C[C@]1(O)CC[C@H]2[C@@H]3CCC4=CC(=O)CCC4=C3[C@@H](c3ccc(N(C)C)cc3)C[C@@]21C", "note": "[mifepristone]", "values": [{"measurement": "cyclic bleeding", "setting": "women with endometriosis [4]; seven women", "value": "ceased in all patients"}, {"measurement": "pelvic pain", "setting": "women with endometriosis [4]; seven women", "value": "improved in six of seven patients"}, {"measurement": "decrease of mean endometriosis scores", "setting": "women with endometriosis [4]", "value": "decreased by only %"}, {"measurement": "amenorrhea / hypoestrogenism", "setting": "women with endometriosis [5]; all patients", "value": "amenorrhea without hypoestrogenism"}, {"measurement": "pelvic pain and uterine cramping", "setting": "women with endometriosis [5]; nine women", "value": "improved in all patients"}, {"measurement": "regression of endometriosis (laparoscopic assessment, AFS score)", "setting": "women with endometriosis [5]", "value": 55, "unit": "%"}, {"measurement": "pain relief, 2.5 mg daily dose compared with 5 mg daily dose", "setting": "[6]; 2.5 mg (T1) vs 5 mg (T2) per day", "value": "more pronounced than the 5 mg group; also recorded: more effective than the 5 mg dose; also recorded: less pelvic pain than with a daily dose of 5 mg"}, {"measurement": "pain associated with extra-pelvic endometriosis", "setting": "[6]; 2.5 mg tablet every day as monotherapy, lesions in cesarean sections or ovarian endometriomas", "value": "effective to reduce the pain associated with extra-pelvic endometriosis; also recorded: appropriate pain relief"}, {"measurement": "endometrial thickening", "setting": "[6]; 5 mg dose compared with 2.5 mg dose", "value": "markedly greater endometrial thickening than the lower dose of 2.5 mg"}, {"measurement": "EAP (VAS)", "setting": "[6]; T1, 2.5 mg mifepristone per day, 1 month of treatment", "value": 29.19}, {"measurement": "EAP (VAS)", "setting": "[6]; T1, 2.5 mg mifepristone per day, 2 months of treatment", "value": 24.61}, {"measurement": "EAP (VAS)", "setting": "[6]; T1, 2.5 mg mifepristone per day, 3 months of treatment", "value": 23.63}, {"measurement": "EAP (VAS)", "setting": "[6]; T1, 2.5 mg mifepristone per day, 4 months of treatment", "value": 22.31}, {"measurement": "EAP (VAS)", "setting": "[6]; T1, 2.5 mg mifepristone per day, month 0 (before treatment)", "value": 32.81}, {"measurement": "EAP (VAS)", "setting": "[6]; T2, 5 mg mifepristone per day, 1 month of treatment", "value": 29.30}, {"measurement": "EAP (VAS)", "setting": "[6]; T2, 5 mg mifepristone per day, 2 months of treatment", "value": 26.11}, {"measurement": "EAP (VAS)", "setting": "[6]; T2, 5 mg mifepristone per day, 3 months of treatment", "value": 24.58}, {"measurement": "EAP (VAS)", "setting": "[6]; T2, 5 mg mifepristone per day, 4 months of treatment", "value": 25.01}, {"measurement": "EAP (VAS)", "setting": "[6]; T2, 5 mg mifepristone per day, month 0 (before treatment)", "value": 32.81}, {"measurement": "intensity of pain associated with endometriosis", "setting": "[6]; daily dose of 2.5 mg alone, no analgesic rescue medication", "value": "significant reduction"}, {"measurement": "amenorrhea", "setting": "women with endometriosis [7]; six women", "value": "reported by all study participants"}, {"measurement": "pelvic pain", "setting": "women with endometriosis [7]; six women", "value": "all women also reported improvement"}, {"measurement": "extent of endometriosis (follow-up laparoscopy)", "setting": "women with endometriosis [7]", "value": "no significant change"}, {"measurement": "amenorrhea and clinical improvement, 2.5 mg group vs 5 and 10 mg groups", "setting": "[8]; 2.5 mg oral dose", "value": "significantly lower percentages of amenorrhea and clinical improvement than the 5 and 10 mg groups"}, {"measurement": "use of analgesics (rescue therapy), 2.5 mg group vs 5 and 10 mg groups", "setting": "[8]; 2.5 mg oral dose", "value": "significantly greater use of analgesics"}, {"measurement": "effectiveness against placebo", "setting": "[8]; 2.5, 5 and 10 mg oral doses, all treatment groups", "value": "more effective than the placebo group"}, {"measurement": "clinical improvement, 5 mg vs 10 mg", "setting": "[8]; after 90 and 180 days of treatment", "value": "no differences were observed"}]}]}
